Where a name gives a salt, the structure may show the parent alone. The source made the active and inactive calls. The calls are words filed in the database; no cut-off is given here.
Key:
[1] = Cytotoxicity against human TZM-bl cells; format: toxicity, cell-based
[2] = test system: Human immunodeficiency virus 1; assay: Antiviral activity against HIV-1 IIIB infected in TZM-bl cells; format: functional, organism-based; conditions: Human immunodeficiency virus 1, IIIB
[3] = Therapeutic index, ratio of CC50 for human TZM-bl cells to EC50 for HIV IIIB infected in TZM-bl cells; format: toxicity, cell-based; conditions: read-out: Ratio CC50/EC50
[4] = target: T1, Protein cereblon/Virion infectivity factor (Human immunodeficiency virus type 1 group M subtype B (isolate NY5)(HIV-1)) (UniProt Q96SW2+P12504); assay: PROTAC activity at CRBN (unknown origin)/Vif in HIV-1 TREX-hvif-15 cells assessed as reduction in Vif protein level at 50 uM by Western blotting analysis; format: cell-based; conditions: TREX-hvif-15 cell
[5] = target: T1, Protein cereblon/Virion infectivity factor (Human immunodeficiency virus type 1 group M subtype B (isolate NY5)(HIV-1)); assay: PROTAC activity at CRBN (unknown origin)/Vif in HIV-1 TREX-hvif-15 cells assessed as reduction in Vif protein level at 50 uM pretreated with MG132 followed by compound addition and measured after 24 hrs by Western blotting analysis; format: cell-based; conditions: TREX-hvif-15 cell
[6] = test system: Human immunodeficiency virus 1; assay: Antiviral activity against HIV-1 9498 infected in C8166 cells; format: functional, organism-based; conditions: Human immunodeficiency virus 1, 9498, C8166
[7] = test system: Human immunodeficiency virus 1; assay: Antiviral activity against HIV1 at 1 uM measured after 2 to 4 hrs; format: functional, organism-based; conditions: time 2-4 hrs
[8] = test system: Human immunodeficiency virus 1; assay: Antiviral activity against HIV-1 4755-5 infected in C8166 cells; format: functional, organism-based; conditions: Human immunodeficiency virus 1, 4755-5, C8166
[9] = test system: Human immunodeficiency virus 1; assay: Antiviral activity against HIV-1 A17 infected in C8166 cells; format: functional, organism-based; conditions: Human immunodeficiency virus 1, A17, C8166
[10] = test system: Human immunodeficiency virus 1; assay: Antiviral activity against HIV-1 IIIB infected in C8166 cells; format: functional, organism-based; conditions: Human immunodeficiency virus 1, IIIB
[11] = test system: Human immunodeficiency virus 1; assay: Antiviral activity against HIV-1 KIZ002 infected in PHA-P stimulated PBMCs; format: functional, organism-based; conditions: Human immunodeficiency virus 1, KIZ002, PBMC
[12] = test system: Human immunodeficiency virus 1; assay: Antiviral activity against HIV-1 G140S/Q148H infected in C8166 cells; format: functional, organism-based; conditions: Human immunodeficiency virus 1, G140S/Q148H
[13] = test system: Human immunodeficiency virus 1; assay: Antiviral activity against HIV1 at 1 uM measured after 8 hrs; format: functional, organism-based
[14] = test system: Human immunodeficiency virus 1; assay: Antiviral activity against HIV-1 WAN infected in PHA-P stimulated PBMCs; format: functional, organism-based; conditions: Human immunodeficiency virus 1, WAN, PBMC
[15] = test system: Human immunodeficiency virus 1; assay: Antiviral activity against HIV-1 2802 infected in C8166 cells; format: functional, organism-based; conditions: Human immunodeficiency virus 1, 2802, C8166

T1 sequence (P12504 whole entry, looked up): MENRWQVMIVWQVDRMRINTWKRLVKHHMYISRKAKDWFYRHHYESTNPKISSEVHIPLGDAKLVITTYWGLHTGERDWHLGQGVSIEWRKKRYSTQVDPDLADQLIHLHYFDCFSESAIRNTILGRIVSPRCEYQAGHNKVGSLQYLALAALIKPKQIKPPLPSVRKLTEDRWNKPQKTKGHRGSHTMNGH
T1 sequence (Q96SW2 whole entry, looked up): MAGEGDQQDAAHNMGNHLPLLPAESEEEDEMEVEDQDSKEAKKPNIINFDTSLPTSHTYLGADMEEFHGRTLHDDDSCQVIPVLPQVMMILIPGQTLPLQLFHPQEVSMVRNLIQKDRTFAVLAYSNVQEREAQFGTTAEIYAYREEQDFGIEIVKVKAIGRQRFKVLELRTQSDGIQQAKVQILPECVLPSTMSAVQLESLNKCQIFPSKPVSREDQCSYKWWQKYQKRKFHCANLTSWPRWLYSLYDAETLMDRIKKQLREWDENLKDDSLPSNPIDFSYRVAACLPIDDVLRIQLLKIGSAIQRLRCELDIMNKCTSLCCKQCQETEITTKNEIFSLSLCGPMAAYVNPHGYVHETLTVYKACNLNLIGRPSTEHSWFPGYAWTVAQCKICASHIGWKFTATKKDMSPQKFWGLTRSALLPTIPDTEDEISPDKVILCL

Row | Compound | EC50 [2] | CC50 [1] | also measured
1 | CC(C)OC(=O)OCOP(=O)(CO[C@H](C)Cn1cnc2c(N)ncnc21)OCOC(=O)OC(C)C [TENOFOVIR DISOPROXIL FUMARATE] | 0.005 µM | > 200 µM | selectivity ratio [3]: > 43800
2 | COc1ccc(OCC(=O)NCCCCCCCCNc2cccc3c2C(=O)N(C2CCC(=O)NC2=O)C3=O)cc1NC(=O)c1c(N)cccc1Sc1ccc([N+](=O)[O-])cc1 (centres undefined) | > 100 µM | > 200 µM | 
3 | COc1ccc(OCC(=O)NCCNCC(=O)Nc2cccc3c2C(=O)N(C2CCC(=O)NC2=O)C3=O)cc1NC(=O)c1c(N)cccc1S(=O)(=O)c1ccc([N+](=O)[O-])cc1 (centres undefined) | > 100 µM | > 200 µM | 
4 | COc1ccc(OCC(=O)NCCCCCCCCCCNc2cccc3c2C(=O)N(C2CCC(=O)NC2=O)C3=O)cc1NC(=O)c1c(N)cccc1S(=O)(=O)c1ccc([N+](=O)[O-])cc1 (centres undefined) | > 100 µM | > 200 µM | 
5 | COc1ccc(OCC(=O)NCCCCCCCCCCNCC(=O)Nc2cccc3c2C(=O)N(C2CCC(=O)NC2=O)C3=O)cc1NC(=O)c1c(N)cccc1Sc1ccc([N+](=O)[O-])cc1 (centres undefined) | > 100 µM | > 200 µM | 
6 | COc1ccc(OCC(=O)NCCCCCCCCNCC(=O)Nc2cccc3c2C(=O)N(C2CCC(=O)NC2=O)C3=O)cc1NC(=O)c1c(N)cccc1Sc1ccc([N+](=O)[O-])cc1 (centres undefined) | > 100 µM | > 200 µM | 
7 | COc1ccc(OCC(=O)NCCOCCOCCNc2cccc3c2C(=O)N(C2CCC(=O)N(C)C2=O)C3=O)cc1NC(=O)c1c(N)cccc1Sc1ccc([N+](=O)[O-])cc1 (centres undefined) |  |  | Activity [5]: inactive
8 | COc1ccc(OCC(=O)NCCNCC(=O)Nc2cccc3c2C(=O)N(C2CCC(=O)NC2=O)C3=O)cc1NC(=O)c1c(N)cccc1Sc1ccc([N+](=O)[O-])cc1 (centres undefined) | > 100 µM | > 200 µM | 
9 | COc1ccc(OCC(=O)NCCOCCOCCOCCNCC(=O)Nc2cccc3c2C(=O)N(C2CCC(=O)NC2=O)C3=O)cc1NC(=O)c1c(N)cccc1Sc1ccc([N+](=O)[O-])cc1 (centres undefined) | > 100 µM | > 200 µM | 
10 | COc1ccc(OCC(=O)NCCCCCCNc2cccc3c2C(=O)N(C2CCC(=O)NC2=O)C3=O)cc1NC(=O)c1c(N)cccc1Sc1ccc([N+](=O)[O-])cc1 (centres undefined) | > 100 µM | > 200 µM | 
11 | COc1ccc(OCC(=O)NCCOCCNc2cccc3c2C(=O)N(C2CCC(=O)NC2=O)C3=O)cc1NC(=O)c1c(N)cccc1Sc1ccc([N+](=O)[O-])cc1 (centres undefined) | > 100 µM | > 200 µM | 
12 | COc1ccc(OCC(=O)NCCCCNc2cccc3c2C(=O)N(C2CCC(=O)NC2=O)C3=O)cc1NC(=O)c1c(N)cccc1S(=O)(=O)c1ccc([N+](=O)[O-])cc1 (centres undefined) | > 100 µM | > 200 µM | 
13 | enfuvirtide |  |  | EC50 [6]: > 10 µM
14 | Nc1ccn([C@@H]2CS[C@H](CO)O2)c(=O)n1 [LAMIVUDINE] |  |  | Activity [7]: Active; EC50 [8]: 76.9 µM; EC50 [9]: 0.28 µM; EC50 [10]: 0.16 µM; EC50 [11]: 0.09 µM; EC50 [12]: 5.61 µM; Activity [13]: inactive; EC50 [14]: 0.15 µM
15 | COc1ccc(OCC(=O)NCCOCCNc2cccc3c2C(=O)N(C2CCC(=O)NC2=O)C3=O)cc1NC(=O)c1c(N)cccc1S(=O)(=O)c1ccc([N+](=O)[O-])cc1 (centres undefined) | > 100 µM | > 200 µM | 
16 | COc1ccc(OCC(=O)NCCOCCOCCOCCNc2cccc3c2C(=O)N(C2CCC(=O)NC2=O)C3=O)cc1NC(=O)c1c(N)cccc1Sc1ccc([N+](=O)[O-])cc1 (centres undefined) | > 100 µM | > 200 µM | 
17 | COc1ccc(OCC(=O)NCCNc2cccc3c2C(=O)N(C2CCC(=O)NC2=O)C3=O)cc1NC(=O)c1c(N)cccc1S(=O)(=O)c1ccc([N+](=O)[O-])cc1 (centres undefined) | > 100 µM | > 200 µM | 
18 | CC(C)CN(C[C@@H](O)[C@H](Cc1ccccc1)NC(=O)O[C@H]1CO[C@H]2OCC[C@H]21)S(=O)(=O)c1ccc(N)cc1 [DARUNAVIR] |  |  | EC50 [15]: < 0.032 µM
19 | COc1ccc(OCC(=O)NCCCCCCNCC(=O)Nc2cccc3c2C(=O)N(C2CCC(=O)NC2=O)C3=O)cc1NC(=O)c1c(N)cccc1Sc1ccc([N+](=O)[O-])cc1 (centres undefined) | > 100 µM | > 200 µM | 

Second part, led by results:

Row | EC50 [2] | Compound | CC50 [1] | also measured
20 | > 100 µM | COc1ccc(OCC(=O)NCCOCCNCC(=O)Nc2cccc3c2C(=O)N(C2CCC(=O)NC2=O)C3=O)cc1NC(=O)c1c(N)cccc1Sc1ccc([N+](=O)[O-])cc1 (centres undefined) | > 200 µM | 
21 | > 100 µM | COc1ccc(OCC(=O)NCCOCCOCCOCCNc2cccc3c2C(=O)N(C2CCC(=O)NC2=O)C3=O)cc1NC(=O)c1c(N)cccc1S(=O)(=O)c1ccc([N+](=O)[O-])cc1 (centres undefined) | > 200 µM | 
22 | > 100 µM | COc1ccc(OCC(=O)NCCCCCCNc2cccc3c2C(=O)N(C2CCC(=O)NC2=O)C3=O)cc1NC(=O)c1c(N)cccc1S(=O)(=O)c1ccc([N+](=O)[O-])cc1 (centres undefined) | > 200 µM | 
23 | > 100 µM | COc1ccc(OCC(=O)NCCCCNCC(=O)Nc2cccc3c2C(=O)N(C2CCC(=O)NC2=O)C3=O)cc1NC(=O)c1c(N)cccc1S(=O)(=O)c1ccc([N+](=O)[O-])cc1 (centres undefined) | > 200 µM | 
24 | > 100 µM | COc1ccc(OCC(=O)NCCCCNCC(=O)Nc2cccc3c2C(=O)N(C2CCC(=O)NC2=O)C3=O)cc1NC(=O)c1c(N)cccc1Sc1ccc([N+](=O)[O-])cc1 (centres undefined) | > 200 µM | 
25 | > 100 µM | COc1ccc(OCC(=O)NCCCCCCNCC(=O)Nc2cccc3c2C(=O)N(C2CCC(=O)NC2=O)C3=O)cc1NC(=O)c1c(N)cccc1S(=O)(=O)c1ccc([N+](=O)[O-])cc1 (centres undefined) | > 200 µM | 
26 | > 100 µM | COc1ccc(OCC(=O)NCCOCCOCCNc2cccc3c2C(=O)N(C2CCC(=O)NC2=O)C3=O)cc1NC(=O)c1c(N)cccc1S(=O)(=O)c1ccc([N+](=O)[O-])cc1 (centres undefined) | > 200 µM | 
27 | 5.97 µM | COc1ccc(O)cc1NC(=O)c1c(N)cccc1Sc1ccc([N+](=O)[O-])cc1 | > 200 µM | selectivity ratio [3]: > 33.5; Activity [4]: inactive
28 | 29 µM | COc1ccc(OCC(=O)NCCCCCCCCCCNCC(=O)Nc2cccc3c2C(=O)N(C2CCC(=O)NC2=O)C3=O)cc1NC(=O)c1c(N)cccc1S(=O)(=O)c1ccc([N+](=O)[O-])cc1 (centres undefined) | > 200 µM | selectivity ratio [3]: > 6.9
29 | 53.1 µM | COc1ccc(OCC(=O)NCCOCCOCCNCC(=O)Nc2cccc3c2C(=O)N(C2CCC(=O)NC2=O)C3=O)cc1NC(=O)c1c(N)cccc1Sc1ccc([N+](=O)[O-])cc1 (centres undefined) | > 200 µM | selectivity ratio [3]: > 3.77
30 | 34.8 µM | COc1ccc(OCC(=O)NCCCCNc2cccc3c2C(=O)N(C2CCC(=O)NC2=O)C3=O)cc1NC(=O)c1c(N)cccc1Sc1ccc([N+](=O)[O-])cc1 (centres undefined) | > 200 µM | selectivity ratio [3]: > 5.76
31 | > 100 µM | COc1ccc(OCC(=O)NCCCCCCCCNc2cccc3c2C(=O)N(C2CCC(=O)NC2=O)C3=O)cc1NC(=O)c1c(N)cccc1S(=O)(=O)c1ccc([N+](=O)[O-])cc1 (centres undefined) | > 200 µM | 
32 | > 100 µM | COc1ccc(OCC(=O)NCCCCCCCCCCNc2cccc3c2C(=O)N(C2CCC(=O)NC2=O)C3=O)cc1NC(=O)c1c(N)cccc1Sc1ccc([N+](=O)[O-])cc1 (centres undefined) | > 200 µM | 
33 | > 100 µM | COc1ccc(OCC(=O)NCCNc2cccc3c2C(=O)N(C2CCC(=O)NC2=O)C3=O)cc1NC(=O)c1c(N)cccc1Sc1ccc([N+](=O)[O-])cc1 (centres undefined) | > 200 µM | 
34 | > 100 µM | COc1ccc(OCC(=O)NCCOCCNCC(=O)Nc2cccc3c2C(=O)N(C2CCC(=O)NC2=O)C3=O)cc1NC(=O)c1c(N)cccc1S(=O)(=O)c1ccc([N+](=O)[O-])cc1 (centres undefined) | > 200 µM | 
35 | > 100 µM | COc1ccc(OCC(=O)NCCCCCCCCNCC(=O)Nc2cccc3c2C(=O)N(C2CCC(=O)NC2=O)C3=O)cc1NC(=O)c1c(N)cccc1S(=O)(=O)c1ccc([N+](=O)[O-])cc1 (centres undefined) | > 200 µM | 
36 | 2.14 µM | COc1ccc(O)cc1NC(=O)c1c(N)cccc1S(=O)(=O)c1ccc([N+](=O)[O-])cc1 | > 200 µM | selectivity ratio [3]: > 93.5; Activity [4]: inactive
37 | 66.9 µM | COc1ccc(OCC(=O)NCCOCCOCCNCC(=O)Nc2cccc3c2C(=O)N(C2CCC(=O)NC2=O)C3=O)cc1NC(=O)c1c(N)cccc1S(=O)(=O)c1ccc([N+](=O)[O-])cc1 (centres undefined) | > 200 µM | selectivity ratio [3]: > 2.99
38 | 21.3 µM | COc1ccc(OCC(=O)NCCOCCOCCOCCNCC(=O)Nc2cccc3c2C(=O)N(C2CCC(=O)NC2=O)C3=O)cc1NC(=O)c1c(N)cccc1S(=O)(=O)c1ccc([N+](=O)[O-])cc1 (centres undefined) | > 200 µM | selectivity ratio [3]: > 9.39

Source: ChEMBL document CHEMBL6127009, “Discovery of L15 as a novel Vif PROTAC degrader with antiviral activity against HIV-1” (Bioorg Med Chem Lett, 2024)
